Measurements as given in ChEMBL document CHEMBL1201862, “PubChem BioAssay data set” (2004).
Active and inactive are the calls of the source.

Key:
Cytochrome P450 2D6 = Cytochrome P450 2D6 (Homo sapiens, UniProt P10635);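 note: CYP2D6 member of a cytochrome P450 panel assay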
Cytochrome P450 2C9 = Cytochrome P450 2C9 (Homo sapiens, UniProt P11712)
Cytochrome P450 2C19 = Cytochrome P450 2C19 (Homo sapiens, UniProt P33261); assay: Cytochrome panel assay with activity outcomes. Panel member name: p450-cyp2c19 Compounds with AC50 equal or less than 10 uM are considered active; type: functional
Chain of Cytochrome P450 2C19 (P33261 whole entry): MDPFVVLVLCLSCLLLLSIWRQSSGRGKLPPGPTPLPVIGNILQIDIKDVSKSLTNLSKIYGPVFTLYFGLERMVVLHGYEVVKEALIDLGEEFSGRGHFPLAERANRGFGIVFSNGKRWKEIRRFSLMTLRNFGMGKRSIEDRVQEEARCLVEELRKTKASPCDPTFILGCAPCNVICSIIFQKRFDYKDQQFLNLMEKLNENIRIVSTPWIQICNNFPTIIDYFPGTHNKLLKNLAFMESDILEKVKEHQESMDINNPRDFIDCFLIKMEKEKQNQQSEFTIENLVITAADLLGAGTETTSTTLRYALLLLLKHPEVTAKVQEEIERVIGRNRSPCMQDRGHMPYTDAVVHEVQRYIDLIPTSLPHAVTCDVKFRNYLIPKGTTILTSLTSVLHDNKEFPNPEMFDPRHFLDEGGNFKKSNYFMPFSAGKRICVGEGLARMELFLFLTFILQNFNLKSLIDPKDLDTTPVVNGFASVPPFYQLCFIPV

Cytochrome P450 3A4 = Cytochrome P450 3A4 (Homo sapiens, UniProt P08684);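 note: CYP3A4 tested as one member of a cytochrome P450 panel screen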
Chain of Cytochrome P450 3A4 (P08684 whole entry): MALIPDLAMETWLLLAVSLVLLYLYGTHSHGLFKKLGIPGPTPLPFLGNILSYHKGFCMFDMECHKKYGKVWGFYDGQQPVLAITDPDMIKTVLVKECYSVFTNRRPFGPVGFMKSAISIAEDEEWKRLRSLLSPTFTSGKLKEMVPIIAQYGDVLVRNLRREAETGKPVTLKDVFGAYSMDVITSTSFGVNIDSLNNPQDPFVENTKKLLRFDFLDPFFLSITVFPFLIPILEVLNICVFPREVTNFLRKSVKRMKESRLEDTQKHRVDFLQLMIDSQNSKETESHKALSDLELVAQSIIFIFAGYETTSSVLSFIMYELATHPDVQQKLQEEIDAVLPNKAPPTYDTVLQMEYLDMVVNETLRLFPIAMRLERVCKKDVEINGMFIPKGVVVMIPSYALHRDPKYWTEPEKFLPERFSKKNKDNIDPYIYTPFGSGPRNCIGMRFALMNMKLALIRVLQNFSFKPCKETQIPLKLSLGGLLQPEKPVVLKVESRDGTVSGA

[1] = target: T1, Microphthalmia-associated transcription factor (Homo sapiens, UniProt O75030); assay: TRPM1 promoter luciferase signal decrease, dose response, MITF inhibitor project, cell-based, SK-MEL-5, cherry-picked, set 3 (AID 493073); type: functional
T1 sequence (O75030 whole entry): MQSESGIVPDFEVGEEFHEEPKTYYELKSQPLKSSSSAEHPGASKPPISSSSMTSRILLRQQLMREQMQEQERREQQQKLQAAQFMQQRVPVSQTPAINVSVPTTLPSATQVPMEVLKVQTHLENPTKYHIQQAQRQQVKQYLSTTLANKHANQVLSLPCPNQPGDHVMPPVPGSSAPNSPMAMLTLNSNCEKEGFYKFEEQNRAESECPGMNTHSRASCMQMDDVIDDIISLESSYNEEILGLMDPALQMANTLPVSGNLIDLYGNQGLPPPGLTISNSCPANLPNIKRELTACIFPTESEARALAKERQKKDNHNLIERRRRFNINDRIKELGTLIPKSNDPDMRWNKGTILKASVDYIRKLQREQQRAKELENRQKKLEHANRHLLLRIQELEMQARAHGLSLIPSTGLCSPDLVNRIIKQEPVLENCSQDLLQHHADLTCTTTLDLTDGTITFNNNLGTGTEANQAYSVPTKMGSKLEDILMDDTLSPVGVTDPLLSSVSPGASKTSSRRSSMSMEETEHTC

[2] = target: T2, Short transient receptor potential channel 4 (Mus musculus, UniProt Q9QUQ5); assay: mouse TRPC4 channel activators, dose response, cell-based, HEK293 TRPC4/mu-opioid, Fluo-4 calcium (AID 434937); type: functional
T2 sequence (Q9QUQ5 whole entry): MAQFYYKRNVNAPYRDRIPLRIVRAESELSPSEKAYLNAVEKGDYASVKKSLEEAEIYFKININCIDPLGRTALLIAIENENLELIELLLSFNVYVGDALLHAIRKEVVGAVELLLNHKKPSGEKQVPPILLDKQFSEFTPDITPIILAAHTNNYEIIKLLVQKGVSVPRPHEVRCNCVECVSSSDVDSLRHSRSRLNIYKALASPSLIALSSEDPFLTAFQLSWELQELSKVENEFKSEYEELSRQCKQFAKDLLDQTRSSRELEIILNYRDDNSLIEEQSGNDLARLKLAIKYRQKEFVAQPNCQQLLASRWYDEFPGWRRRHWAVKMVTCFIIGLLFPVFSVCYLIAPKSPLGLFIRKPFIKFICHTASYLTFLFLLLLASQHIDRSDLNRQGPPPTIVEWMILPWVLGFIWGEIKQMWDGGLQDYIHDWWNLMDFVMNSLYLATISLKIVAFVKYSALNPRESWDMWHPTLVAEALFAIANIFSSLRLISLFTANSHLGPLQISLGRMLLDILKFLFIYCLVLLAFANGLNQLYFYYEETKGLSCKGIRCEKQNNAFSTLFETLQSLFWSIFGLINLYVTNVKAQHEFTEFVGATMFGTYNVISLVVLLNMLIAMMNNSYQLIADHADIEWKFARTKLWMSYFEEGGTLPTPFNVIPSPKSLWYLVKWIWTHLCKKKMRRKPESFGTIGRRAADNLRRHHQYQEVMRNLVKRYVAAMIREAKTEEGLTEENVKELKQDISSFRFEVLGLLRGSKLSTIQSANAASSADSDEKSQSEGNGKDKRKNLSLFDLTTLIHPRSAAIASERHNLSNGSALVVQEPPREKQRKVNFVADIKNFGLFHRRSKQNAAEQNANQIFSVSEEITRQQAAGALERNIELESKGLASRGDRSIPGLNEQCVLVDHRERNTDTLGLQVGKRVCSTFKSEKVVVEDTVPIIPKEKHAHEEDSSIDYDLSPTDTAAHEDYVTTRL

[3] = A Cell Based Secondary Assay To Explore Cytotoxicity of Compounds that Sensitize Mycobacterium Tuberculosis to Beta-Lactam Antibiotics.; type: functional
A-375 = assay: MITF: Counter assay: A375 proliferation Measured in Cell-Based System Using Plate Reader - 2084-03_Inhibitor_Dose_DryPowder_Activity. [Related pubchem assays (depositor defined):AID488944]; type: functional; details: Homo sapiens
[4] = target: T2, Short transient receptor potential channel 4; assay: mouse TRPC4 channel inhibitors, dose response, cell-based, HEK293 TRPC4/mu-opioid, Fluo-4 calcium (AID 434942); type: functional;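 note: potency of inhibitors blocking the TRPC4 calcium response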
[5] = target: DNA repair protein RAD52 homolog (Homo sapiens, UniProt P43351); type: functional, biochemical
Chain of DNA repair protein RAD52 homolog (P43351 whole entry): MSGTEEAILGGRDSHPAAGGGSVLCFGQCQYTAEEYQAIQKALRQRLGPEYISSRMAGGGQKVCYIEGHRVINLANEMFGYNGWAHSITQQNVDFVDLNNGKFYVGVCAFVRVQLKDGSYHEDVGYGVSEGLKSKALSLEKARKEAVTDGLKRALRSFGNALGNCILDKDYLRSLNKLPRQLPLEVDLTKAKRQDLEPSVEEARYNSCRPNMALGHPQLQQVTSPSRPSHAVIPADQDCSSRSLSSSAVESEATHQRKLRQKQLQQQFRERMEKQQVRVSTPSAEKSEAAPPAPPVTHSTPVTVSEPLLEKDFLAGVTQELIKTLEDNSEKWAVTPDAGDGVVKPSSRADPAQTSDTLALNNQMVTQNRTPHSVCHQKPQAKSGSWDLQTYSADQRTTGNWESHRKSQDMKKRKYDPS

CAAX prenyl protease 1 = CAAX prenyl protease 1 (Saccharomyces cerevisiae S288c, UniProt P47154); assay: Ste24 protease inhibitors, dose response, biochemical, S. cerevisiae, plate reader, cherry-pick (AID 488815)
Chain of CAAX prenyl protease 1 (P47154 whole entry): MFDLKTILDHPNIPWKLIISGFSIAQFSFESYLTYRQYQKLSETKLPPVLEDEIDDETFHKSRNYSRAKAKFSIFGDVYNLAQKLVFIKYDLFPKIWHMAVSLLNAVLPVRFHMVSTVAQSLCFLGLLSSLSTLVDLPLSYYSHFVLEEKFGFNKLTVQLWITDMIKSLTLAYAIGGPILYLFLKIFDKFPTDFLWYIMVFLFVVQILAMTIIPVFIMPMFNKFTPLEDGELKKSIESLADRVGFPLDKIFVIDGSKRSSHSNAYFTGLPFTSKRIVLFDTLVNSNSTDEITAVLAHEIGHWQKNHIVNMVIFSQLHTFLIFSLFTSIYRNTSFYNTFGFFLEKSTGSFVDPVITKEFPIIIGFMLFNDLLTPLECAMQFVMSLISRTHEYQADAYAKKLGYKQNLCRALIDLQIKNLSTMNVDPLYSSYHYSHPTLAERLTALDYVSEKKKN

[6] = A cytotoxicity screen of small molecule inhibitors of the PhoP region in Salmonella typhi identified in the primary screen. [Related pubchem assays: 1850, 1864, 1985 ]; type: functional
[7] = target: T3, DNA repair and recombination protein RAD54-like (Homo sapiens, UniProt Q92698); assay: inhibitors of human RAD54 branch migration, confirmation, biochemical, fluorescence, cherry-picked samples, dose series (AID 651657); type: functional
T3 sequence (Q92698 whole entry): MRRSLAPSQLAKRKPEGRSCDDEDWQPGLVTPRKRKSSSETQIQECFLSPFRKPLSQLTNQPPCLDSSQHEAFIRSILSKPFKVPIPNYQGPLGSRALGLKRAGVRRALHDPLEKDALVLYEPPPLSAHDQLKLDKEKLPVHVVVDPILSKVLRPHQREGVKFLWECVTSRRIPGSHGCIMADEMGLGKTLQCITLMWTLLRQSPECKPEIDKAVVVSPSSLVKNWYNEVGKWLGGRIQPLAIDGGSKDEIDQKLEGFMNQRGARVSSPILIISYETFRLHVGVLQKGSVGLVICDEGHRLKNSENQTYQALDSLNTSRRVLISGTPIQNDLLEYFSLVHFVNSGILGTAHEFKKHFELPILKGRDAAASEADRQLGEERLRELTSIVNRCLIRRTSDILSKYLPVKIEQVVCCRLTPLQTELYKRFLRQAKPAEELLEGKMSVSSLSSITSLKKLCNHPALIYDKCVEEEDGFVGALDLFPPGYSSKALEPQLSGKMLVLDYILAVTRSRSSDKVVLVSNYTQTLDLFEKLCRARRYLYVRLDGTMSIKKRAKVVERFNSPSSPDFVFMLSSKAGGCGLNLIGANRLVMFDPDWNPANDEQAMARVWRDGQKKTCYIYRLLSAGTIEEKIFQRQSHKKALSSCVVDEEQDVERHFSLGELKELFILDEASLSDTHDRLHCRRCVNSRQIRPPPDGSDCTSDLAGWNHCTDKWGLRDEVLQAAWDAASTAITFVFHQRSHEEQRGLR

Orexin receptor type 2 [8] = target: T4, Orexin receptor type 2 (Homo sapiens, UniProt O43614); assay: Counterscreen assay for antagonists of the orexin 1 receptor (OX1R; HCRTR1): Homogeneous Time Resolved Fluorescence (HTRF)-based cell-based dose response assay for antagonists of the orexin 2 receptor (OX2R; HCRTR2), run by assay provider.; type: functional
T4 sequence (O43614 whole entry): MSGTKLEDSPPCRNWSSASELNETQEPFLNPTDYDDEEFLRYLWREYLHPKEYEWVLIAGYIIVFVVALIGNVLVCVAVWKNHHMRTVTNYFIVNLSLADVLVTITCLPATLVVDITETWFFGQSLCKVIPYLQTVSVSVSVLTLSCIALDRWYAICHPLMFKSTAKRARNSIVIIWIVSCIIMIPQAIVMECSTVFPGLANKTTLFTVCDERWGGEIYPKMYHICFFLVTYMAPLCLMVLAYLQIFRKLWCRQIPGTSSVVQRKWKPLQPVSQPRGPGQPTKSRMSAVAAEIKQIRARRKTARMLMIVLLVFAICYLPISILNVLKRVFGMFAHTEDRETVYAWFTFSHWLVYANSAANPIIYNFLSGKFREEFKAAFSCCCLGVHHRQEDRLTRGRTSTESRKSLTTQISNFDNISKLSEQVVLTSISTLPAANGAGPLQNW

BJ [9] = assay: cytotoxicity toward BJ-TERT fibroblasts, dose response, cell-based, RAS-independent, luminescence (AID 1933); type: functional; details: Homo sapiens
[10] = target: T5, Orexin/Hypocretin receptor type 1 (Homo sapiens, UniProt O43613); assay: Fluorescence-based cell-based high throughput dose response assay for antagonists of the orexin 1 receptor (OX1R; HCRTR1). [Related pubchem assays (depositor defined):AID434989, AID435008, AID463079, AID485270, AID492963, AID492964, AID492965, AID493232, AID504717, AID504718]; type: functional
T5 sequence (O43613 whole entry): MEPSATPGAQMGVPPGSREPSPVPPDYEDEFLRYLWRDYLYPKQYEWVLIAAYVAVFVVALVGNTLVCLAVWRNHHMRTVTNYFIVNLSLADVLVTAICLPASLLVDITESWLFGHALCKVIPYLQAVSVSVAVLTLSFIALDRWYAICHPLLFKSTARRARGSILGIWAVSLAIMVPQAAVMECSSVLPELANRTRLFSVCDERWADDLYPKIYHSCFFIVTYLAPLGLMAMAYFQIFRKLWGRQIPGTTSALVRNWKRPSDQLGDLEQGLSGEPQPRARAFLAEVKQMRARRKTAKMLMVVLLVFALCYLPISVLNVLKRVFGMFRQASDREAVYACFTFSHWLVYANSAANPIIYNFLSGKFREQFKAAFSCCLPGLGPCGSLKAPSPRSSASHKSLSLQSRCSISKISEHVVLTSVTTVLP

Orexin receptor type 2 [11] = target: T4, Orexin receptor type 2; assay: Counterscreen assay for antagonists of the orexin 1 receptor (OX1R; HCRTR1): Fluorescence-based cell-based dose response assay for antagonists of the orexin 2 receptor (OX2R; HCRTR2), run by assay provider.; type: functional
[12] = cytotoxicity in HEK-293T NF-kB-Luc cells, dose response, cytotoxicity control for B/T-cell NF-kB inhibitor project, cell-based, uHTS hits (AID 489019); type: functional;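 note: IC50 reflects cytotoxicity as loss of cell viability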
Jurkat = assay: antigen receptor-induced NF-kB inhibitors, dose response, Jurkat, luciferase reporter, luminescence, B- and T-cell (AID 489004); type: functional, cell-based; details: Homo sapiens;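 note: NF-kB luciferase reporter Jurkat cells stimulated with PMA plus ionomycin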
BJ [13] = assay: cytotoxicity toward BJ-TERT-LT-ST fibroblasts, dose response, cell-based, RAS-independent, luminescence (AID 1935); type: functional; details: Homo sapiens;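 note: BJ fibroblasts immortalized with TERT plus LT and ST oncogenes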
[14] = cytotoxicity toward DRD oncogenic fibroblasts, dose response, cell-based, non-viral oncogenic, luminescence (AID 1934); type: functional; details: Homo sapiens
[15] = target: T5, Orexin/Hypocretin receptor type 1; assay: Homogeneous Time Resolved Fluorescence (HTRF)-based cell-based high throughput dose response assay for antagonists of the orexin 1 receptor (OX1R; HCRTR1). [Related pubchem assays (depositor defined):AID434989, AID435008, AID463079, AID485270, AID492963, AID492964, AID492965, AID493232, AID504717, AID504718]; type: functional
[16] = Counterscreen for antagonists of the orexin 1 receptor (OX1R; HCRTR1): Fluorescence-based cell-based high throughput dose response assay to identify antagonists of the parental CHO cell line. [Related pubchem assays (depositor defined):AID434989, AID435008, AID463079, AID485270, AID492963, AID492964, AID492965, AID493232, AID504699, AID504701]; type: functional
CHO-K1 = assay: Counterscreen for antagonists of the orexin 1 receptor (OX1R; HCRTR1): Homogeneous time resolved fluorescence (HTRF)-based cell-based dose response assay to identify antagonists of the parental CHO-K1 cell line. [Related pubchem assays (depositor defined):AID434989, AID435008, AID463079, AID485270, AID492963, AID492964, AID492965, AID493232, AID504699, AID504701]; type: functional; details: Cricetulus griseus;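 note: potency for inhibition of ATP-stimulated IP1 production as antagonists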
BJ [17] = assay: cells; type: functional, cell-based; details: Homo sapiens

Chain of Cytochrome P450 2D6 (P10635 whole entry): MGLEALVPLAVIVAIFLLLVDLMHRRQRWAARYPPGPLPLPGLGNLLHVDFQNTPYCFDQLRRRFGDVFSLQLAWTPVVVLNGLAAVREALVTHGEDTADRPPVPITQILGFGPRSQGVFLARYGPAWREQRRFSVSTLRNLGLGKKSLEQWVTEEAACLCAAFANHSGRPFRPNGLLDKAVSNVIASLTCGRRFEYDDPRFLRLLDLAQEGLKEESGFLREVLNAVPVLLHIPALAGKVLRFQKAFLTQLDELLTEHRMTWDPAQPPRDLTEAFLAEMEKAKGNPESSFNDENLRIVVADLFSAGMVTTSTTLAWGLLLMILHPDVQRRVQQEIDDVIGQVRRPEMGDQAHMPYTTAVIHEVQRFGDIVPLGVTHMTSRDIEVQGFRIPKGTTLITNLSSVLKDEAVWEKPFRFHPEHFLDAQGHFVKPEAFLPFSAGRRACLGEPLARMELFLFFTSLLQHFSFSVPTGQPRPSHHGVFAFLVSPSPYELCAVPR
Chain of Cytochrome P450 2C9 (P11712 whole entry): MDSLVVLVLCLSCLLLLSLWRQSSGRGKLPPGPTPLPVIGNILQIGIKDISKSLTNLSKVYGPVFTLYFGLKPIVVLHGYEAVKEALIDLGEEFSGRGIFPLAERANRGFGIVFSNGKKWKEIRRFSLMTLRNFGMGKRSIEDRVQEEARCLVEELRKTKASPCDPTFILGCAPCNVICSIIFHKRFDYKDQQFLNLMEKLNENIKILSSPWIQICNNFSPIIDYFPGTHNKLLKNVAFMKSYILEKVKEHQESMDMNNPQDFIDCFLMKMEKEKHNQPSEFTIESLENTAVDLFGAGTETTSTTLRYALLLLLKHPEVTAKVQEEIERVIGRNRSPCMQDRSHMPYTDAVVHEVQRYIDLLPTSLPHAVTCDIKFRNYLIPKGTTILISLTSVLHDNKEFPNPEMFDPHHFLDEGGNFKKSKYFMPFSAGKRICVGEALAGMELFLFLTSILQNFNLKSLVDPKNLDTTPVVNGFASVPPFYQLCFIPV

O=C(Nc1nc2ccc(F)cc2s1)C1CCCO1 (configuration not stated)
inconclusive: AC50 (Cytochrome P450 2D6) | AC50 (Cytochrome P450 2C9) 39.8 µM | AC50 (Cytochrome P450 2C19; read-out: AC50) 25.1 µM

C[C@@H]1/C=C\CC(=O)OC[C@H](C)C(=O)N[C@@H](Cc2ccccc2)C(=O)OC1
inconclusive: AC50 (Cytochrome P450 2D6) | AC50 (Cytochrome P450 2C19) | AC50 (Cytochrome P450 3A4) 3.16 µM

CC(C)C1CC(CCNCc2ccc(N(C)C)cc2)(c2ccccc2)CCO1 (configuration not stated)
active: AC50 [1] 11.1 µM | EC50 [2] 6.68 µM | CC50 [3] 33.3 µM | AC50 (A-375) 20.7 µM

Cc1ccc2nc3c(c(N)c2c1)CCN3C
active: EC50 [4] 2.37 µM | AC50 [5] 15.4 µM | AC50 (CAAX prenyl protease 1) 16.6 µM | EC50 [6] > 50 µM | AC50 [7] 21.7 µM

Cc1nn(-c2ccccc2)c(C)c1/C=N/NC(=O)c1cc(-c2cccs2)[nH]n1
inconclusive: EC50 (BJ [9]) 0.66 µM | EC50 (BJ [13]) 0.601 µM | EC50 [14] 0.644 µM
inactive: IC50 (Orexin receptor type 2 [8]) > 50 µM | IC50 (Orexin receptor type 2 [11]) 37 µM | IC50 [16] > 49.7 µM | IC50 (CHO-K1) > 66.2 µM
active: IC50 [10] 3.99 µM | IC50 [12] 9.45 µM | IC50 (Jurkat) 10.3 µM | IC50 [15] 2.99 µM | EC50 (BJ [17]) 0.79 µM
